Laboratory results taken from patent US5985893A, “Physically stable solid form of a fluoroquinolone” (Pharmacia & Upjohn Company, priority 1996, dated 1999).
Where “and” joins values, the source holds several entries; their conditions need not be identical. Equal entries are not always repeated.

How the values were obtained:
Assay type in all cases: physicochemical
[1] = Stability of the solid forms to phase transformation (overall finding); details: variety of conditions
[2] = Solubility of the quinolone, Forms I and III, in ethyl acetate; details: 20° C, two values given
Experimental: Bulk drug samples are prepared by dissolving the material in mobile phase at a final concentration of approximately 0.25 to 0.5 mg/ml. For solubility experiments, 100 mcl aliquots of ethyl acetate solutions are withdrawn and placed directly into HPLC autosampler vials. A gentle stream of nitrogen gas is used to evaporate the solvent in the sample vials. The solids are reconstituted with 0.5 ml of HPLC mobile phase prior to analysis.
Solubilities are measured in ethyl acetate. Five to ten milligrams of bulk drug are placed into an amber autoinjector vial, and 3.0 ml of ethyl acetate are added. The vials are capped and shaken for intervals up to 24 hours at room temperature using a Burrell model BB wrist-action shaker. Aliquots are withdrawn from the supernate after centrifugation. The final sample is taken from a quiescent solution which had not been shaken since the 24 hour timepoint.
The solubilities of Forms I and III were determined in ethyl acetate at room temperature; the solubility data for each form was gathered simultaneously, to assure that each form's solubility was measured under identical conditions. Ethyl acetate was employed as an aprotic solvent yielding fairly low equilibrium solubilities of the quinolone; ethyl acetate has been used to evaluate the difference in free energy of polymorphic forms of an antinociceptive drug, as described by K. Raghavan et al., J. Pharm. Biomed. Anal. Vol.12 (6), pp. 777-785 (1994). Under the assumption that the solubilities in TABLE S are consistent with the dilute solution limit, we can use the following expression to calculate the difference in Gibbs free energy between Form I and Form III: [formula] where "sx " is the solubility of Form x in a sufficiently dilute solution, R is the gas constant, and T is the absolute temperature. Using the data in Table 1, we find that the Gibbs free energy of Form III is lower than that of Form I by 7.7±0.2 kJ/mole.

[3] = Powder XRD after humidity exposure; details: 75% relative humidity, ambient temperature, 5 days
Experimental: A Rigaku DMAX-A X-ray diffractometer is employed for the acquisition of the powder XRD patterns. The instrument is operated with the copper K-L3 radiation at 1.5406 Å. The major instrumental parameters are set as follows: 40 KV voltage, 30 mA current, beam aperture of 1° and detector aperture (receiving slit) of 0.30°. Patterns are scanned over the range of 3-40° two-theta angles with a scan rate of 1.5° two-theta/min (step size of 0.05° and counting time at 2 second/step). Samples are ground to fine powders and packed into an aluminum tray.

[4] = Isothermal calorimetry (ITC) of Form I to Form III conversion
Experimental: Isothermal calorimetry (ITC) experiments are conducted using a model 2277 microcalorimeter made by ThermoMetric (see Suurkuusk, J.:Wadso, I. Chem. Scr. (1982) Vol. 20 pp. 155-163). The Digitam® version 2.1 software from Thermometric is used to display the data and to integrate the total heat obtained from the samples. Heat flow is monitored as a function of time at 60° C. and at 40° C. Both glass and stainless steel ampules are used to hold the solid samples and the reference material (quartz sand). Samples are thermally equilibrated for a period ranging from 15 minutes (glass ampules) to 1 hour (stainless steel ampules) prior to recording thermal data. The weight of the samples ranged from about 75 to 300 mg. Samples in glass ampules are equilibrated via the isopiestic method at 53% or 75% RH in chambers containing saturated solutions of sodium chloride or calcium nitrate tetrahydrate. The ampules are capped immediately after removing the samples. Other samples are equilibrated using "microhygrostats" containing small quantities of saturated salt solutions which are sealed within the ampules. This arrangement provided for nearly constant relative humidity as the crystal conversion proceeded.
We therefore studied the transformation of samples after equilibration at […] and 75% RH. […] HPLC analysis of the reaction product confirmed that the 60° C. ITC profiles contained negligible contributions from chemical decomposition.
A detailed explanation of FIG. 9 follows. […] Trace (a) is recorded from a sample of Form I equilibrated to 75% relative humidity before sealing the sample container and exposing it to the 60° C. conditions in the calorimeter. Trace (b) is recorded for a sample of Form I at 60° C., but a 75% relative humidity "microhygrostat" is placed in the sample container just prior to recording the data. The conversion is delayed from that of trace (a) due to the fact that the water must be transported from the microhygrostat to the Form I crystals during the experiment. Trace (c) is recorded for a sample of Form I at 60° C., but the sample was equilibrated at 53% relative humidity prior to sealing the sample container.
This trace results from placing a 75% relative humidity microhygrostat into the sample container just prior to recording the data. The sample is held at 40° C. in the calorimeter; the heat flow results as the Form I material converts to Form III.

**Q.** Which results are given for CN[C@@H](C)[C@@H]1CCN(c2c(F)cc3c(=O)c(C(=O)O)cn(C4CC4)c3c2OC)C1 [Form I, [S-(R*,S*)]-1-cyclopropyl-6-fluoro-1,4-dihydro-8-methoxy-7-[3-[1-(methylamino)ethyl]-1-pyrrolidinyl]-4-oxo-3-quinolinecarboxylic acid]?
**A.** Stability to transformation (in words) [1]: undergo phase transformations under a variety of conditions; Solubility, concentration ([2]; 1 hour, 60 min): 2890 µg/mL and 2780 µg/mL; Solubility, concentration ([2]; 2 hours, 120 min): 2180 µg/mL and 2990 µg/mL; Solubility, concentration ([2]; 4.5 hours, 270 min): 3010 µg/mL and 3110 µg/mL; Solubility, concentration ([2]; 18 hours, 1080 min): 3020 µg/mL and 3080 µg/mL; Solubility, concentration ([2]; 24 hours, 1440 min): 3240 µg/mL and 3320 µg/mL; Solubility, concentration ([2]; 67.5 hours (not shaken after 24 hours), 4050 min): 3220 µg/mL and 3240 µg/mL; Diffraction pattern after humidity exposure [3]: does not change after Form I is exposed to 75% relative humidity at ambient temperature for 5 days; Conversion exotherm, beginning ([4]; 40° C, 75% RH microhygrostat): about 6 hours; Conversion exotherm, end ([4]; 40° C, 75% RH microhygrostat): about 50 hours; Rate of conversion Form I to Form III, dependence on humidity ([4]; 60° C, 51% vs 75% RH): slower at 51% RH than at 75% RH by about two orders of magnitude; Integrated enthalpy change, low moisture sample ([4]; 60° C, after 80 hours, mixture of Forms I and III): about 10 J/g; Final state of high moisture sample (in words) ([4]; 60° C, equilibrated at 75% RH, by XRD and DSC): converted completely to Form III; Conversion of Form I to Form III under dry conditions (in words) ([4]; > 7 days at 40° C./50% RH or 5 days at 60° C.): did not convert to Form III under dry conditions, even after greater than 7 days at 40° C./50% RH or after 5 days at 60 °C; Initial water content of Form I sample ([4]; before ITC at 40° C): 0.54%; Conversion of Form I to Form III (in words) ([4]; equilibrated at 75% RH, 60° C): convert completely to Form III in less than one day at 60 °C; Conversion of Form I to Form III (in words) ([4]; initial water activity at least 53% RH): direct conversion of Form I to Form III occurs without the formation of Form II; Lowest temperature at which conversion of Form I to Form III was observed ([4]; microcalorimeter): 40 °C
